Experimental data reported in patent US5591726A, “Heterocyclylalkyl diarylboron ester and thioester fungicidal agents” (American Cyanamid Company, priority 1994, dated 1997).

Assays:
[1] = test system: Septoria nodorum (propiconazole-resistant and -sensitive strains); type: cell-based; details: EC50 resistant strain / EC50 sensitive strain, 50 to 54 hours
[2] = test system: Ustilago avenae (triadimefon-resistant and -sensitive strains); type: cell-based; details: EC50 resistant strain / EC50 sensitive strain, 50 to 54 hours
[3] = test system: Cladosporium cucumerinum (fenarimol-resistant and -sensitive strains); type: cell-based; details: EC50 resistant strain / EC50 sensitive strain, 50 to 54 hours
Venturia inaequalis = test: In vivo fungicidal evaluation, Apple Scab (AS); details: 200 ppm foliar spray; also: ranges in brackets are in %
Description: (§1) Test compounds are dissolved or suspended in acetone and diluted with deionized water containing about 0.05% TWEEN®20, a polyoxyethylene sorbitan monolaurate surfactant manufactured by Atlas Chemical Industries, to give a concentration of 200 ppm. Host plants are sprayed with the test solution, dried and inoculated with fungi. When disease symptom development is optimal, the plants are rated for disease control according to the rating scale shown below. Each test contains inoculated treated plants, inoculated untreated plants and a reference standard. When more than one test is run, the data are averaged. The data obtained are shown in Table I. |AS Apple Scab Venturia inaequalis

Plasmopara viticola = test: In vivo fungicidal evaluation, Grape Downy Mildew (GDM); details: 200 ppm foliar spray; also: ranges in brackets are in %
Description: as §1, with “|GDM Grape Downy Mildew | Plasmopara viticola” for “|AS Apple Scab Venturia inaequalis”

Botrytis cinerea = test: In vivo fungicidal evaluation, Pepper Botrytis (PB); details: 200 ppm foliar spray; also: ranges in brackets are in %
Description: as §1, with “|PB Pepper Botrytis Botrytis cinerea” for “|AS Apple Scab Venturia inaequalis”

Pyricularia grisea = type: in vivo; details: Rice Blast; 200 ppm foliar spray
Cercospora beticola = test: In vivo fungicidal evaluation, Sugar Beet Cercospora (SBC); details: 200 ppm foliar spray; also: ranges in brackets are in %
Description: as §1, with “|SBC Sugar Beet Cercospora | Cercospora beticola” for “|AS Apple Scab Venturia inaequalis”

Alternaria solani = test: In vivo fungicidal evaluation, Tomato Early Blight (TEB); details: 200 ppm foliar spray; also: ranges in brackets are in %
Description: as §1, with “|TEB Tomato Early Blight | Alternaria solani” for “|AS Apple Scab Venturia inaequalis”

[4] = test system: Erysiphe graminis f. sp. tritici; test: In vivo fungicidal evaluation, Wheat Powdery Mildew (WPM); details: 200 ppm foliar spray; also: ranges in brackets are in %
Description: as §1, with “|WPM Wheat Powdery Mildew | Erysiphe graminis | f. sp. tritici” for “|AS Apple Scab Venturia inaequalis”

Septoria nodorum = test: In vivo fungicidal evaluation, Wheat Septoria Nodorum (WSN); details: 200 ppm foliar spray
Description: Test compounds are dissolved or suspended in acetone and diluted with deionized water containing about 0.05% TWEEN®20, a polyoxyethylene sorbitan monolaurate surfactant manufactured by Atlas Chemical Industries, to give a concentration of 200 ppm.
Host plants are sprayed with the test solution, dried and inoculated with fungi. When disease symptom development is optimal, the plants are rated for disease control according to the rating scale shown below. Each test contains inoculated treated plants, inoculated untreated plants and a reference standard. When more than one test is run, the data are averaged.
WSN Wheat Septoria Nodorum

[5] = test system: Fusarium oxysporum f. sp. cucumerinum; test: In vitro fungicidal evaluation, FUSOXC; type: cell-based; details: 25 ppm; 3-7 days at 21° C. Also: ranges in brackets are in %.
Description: (§2) Test compounds are dissolved or suspended in acetone and dispersed into cell well plates containing a suspension of ground fungal mycelia/spores in a nutrient broth. Assay plates are incubated for 3-7 days at 21° C. Growth inhibition is measured visually and is rated using the following scale:
(§3) Untreated controls, solvent blanks and reference standards are included in each test.
(§4) Assay fungi include the plant pathogens, Pythium ultimum (PYTHUL); Rhizoctonia solani (RHIZSO); Fusarium oxysporum f. sp. cucumerinum (FUSOXC); and Pseudocercosporella herpotrichoides (PSDCHE).
(§5) When more than one test is run, the data are averaged. The compounds evaluated are reported by compound number given in Example 3.

Pythium ultimum = test: In vitro fungicidal evaluation, PYTHUL; type: cell-based; details: 25 ppm; 3-7 days at 21° C. Also: ranges in brackets are in %.
Description: as §2, §3, §4, §5

Rhizoctonia solani = test: In vitro fungicidal evaluation, RHIZSO; type: cell-based; details: 25 ppm; 3-7 days at 21° C. Also: ranges in brackets are in %.
Description: as §2, §3, §4, §5

[6] = test system: Pseudocercosporella herpotrichoides; test: In vitro fungicidal evaluation, PSDCHE; type: cell-based; details: 25 ppm; 3-7 days at 21° C. Also: ranges in brackets are in %.
Description: as §2, §3, §4, §5

| SMILES | Resistance Factor, Septoria nodorum [1] | Resistance Factor, Ustilago avenae [2] | Resistance Factor, Cladosporium cucumerinum [3] | Disease control rating, AS (Venturia inaequalis) | Disease control rating, GDM (Plasmopara viticola) | Disease control rating, PB (Botrytis cinerea) | Disease control rating, RB (Pyricularia grisea) | Disease control rating, SBC (Cercospora beticola) | Disease control rating, TEB (Alternaria solani) | Disease control rating, WPM [4] | Disease control rating, WSN (Septoria nodorum) | Growth inhibition rating, FUSOXC [5] | Growth inhibition rating, PYTHUL (Pythium ultimum) | Growth inhibition rating, RHIZSO (Rhizoctonia solani) | Growth inhibition rating, PSDCHE [6] |
| --- | --- | --- | --- | --- | --- | --- | --- | --- | --- | --- | --- | --- | --- | --- | --- |
| Clc1ccc(COC(Cn2ccnc2)c2ccc(Cl)cc2Cl)c(Cl)c1 (centres unmarked) [Miconazole nitrate, reference compound] | 2.5 | 4.1 | 2.4 |  |  |  |  |  |  |  |  |  |  |  |  |
| CC(C)(C)C(O)(CCc1ccc(Cl)cc1)Cn1cncn1 (centres unmarked) [Tebuconazole, reference compound] | 6.1 |  |  |  |  |  |  |  |  |  |  |  |  |  |  |
| Fc1ccc(B(OC(c2ccc(Cl)cc2)(c2cncnc2)c2ccccc2Cl)c2ccc(F)cc2)cc1 (centres unmarked) [Compound 5, (o-Chlorophenyl)(p-chlorophenyl)(5-pyrimidinyl)methyl bis(p-fluorophenyl)borinate] |  |  |  | 7 (90-95) | 0 (0) | 0 (0) | 0 (0) | 7 (90-95) | 3 (30-44) | 8 (96-99) | 7 (90-95) | 0 (0) | 1 (1-29) | 7 (90-99) | 0 (0) |
| OC(c1ccc(Cl)cc1)(c1cncnc1)c1ccccc1Cl (centres unmarked) [Fenarimol, reference compound] | 9.6 | 9.9 |  |  |  |  |  |  |  |  |  |  |  |  |  |
| Clc1ccc(C(Cn2ccnc2)OB(c2ccccc2)c2ccccc2)c(Cl)c1 (centres unmarked) [Compound 6, 1-(2,4-Dichlorophenyl)-2-(imidazol-1-yl)ethyl diphenylborinate] | 1.0 | 1.6 | 1.1 | 3 (30-44) | 0 (0) | 0 (0) | 0 (0) | 5 (60-74) | 0 (0) | 8 (96-99) | 0 (0) | 9 (100) | 7 (90-99) | 9 (100) | 0 (0) |
| Clc1ccc(C(OB(c2ccccc2)c2ccccc2)(c2cncnc2)c2ccccc2Cl)cc1 (centres unmarked) [Compound 2, (o-Chlorophenyl)(p-chlorophenyl)(5-pyrimidinyl)methyl diphenylborinate] | 1.3 | 1.3 |  | 9 (100) | 3 (30-44) | 8 (96-99) | 0 (0) | 9 (100) | 8 (96-99) | 8 (96-99) | 8 (96-99) | 9 (100) | 7 (90-99) | 9 (100) | 0 (0) |
| Fc1ccc(B(OC(Cn2ccnc2)c2ccc(Cl)cc2Cl)c2ccc(F)cc2)cc1 (centres unmarked) [Compound 1, 1-(2,4-Dichlorophenyl)-2-(imidazol-1-yl)ethyl bis(p-fluorophenyl)borinate] | 1.2 | 2.6 | 1.5 | 0 (0) | 0 (0) | 0 (0) | 8 (96-99) | 6 (75-89) | 4 (45-59) | 8 (96-99) | 0 (0) | 5 (60-89) | 5 (60-89) | 7 (90-99) | 0 (0) |
| CC(C)(C)C(CCc1ccc(Cl)cc1)(Cn1cncn1)OB(c1ccccc1)c1ccccc1 (centres unmarked) [Compound 3, 1-Tert-butyl-3-(p-chlorophenyl)-1-(1H-1,2,4-triazol-1-ylmethyl)propyl diphenylborinate] | 1.8 | 2.0 | 1.7 | 8 (96-99) | 9 (100) | 6 (75-89) | 6 (75-89) | 6 (75-89) | 6 (75-89) | 8 (96-99) | 0 (0) | 9 (100) | 9 (100) | 9 (100) | 0 (0) |
| Clc1ccc(COC(Cn2ccnc2)c2ccc(Cl)cc2Cl)cc1 (centres unmarked) [Econazole nitrate, reference compound] | 1.8 | 2.0 | 2.0 |  |  |  |  |  |  |  |  |  |  |  |  |
| CC(C)(C)C(CCc1ccc(Cl)cc1)(Cn1cncn1)OB(c1ccc(F)cc1)c1ccc(F)cc1 (centres unmarked) [Compound 4, 1-Tert-butyl-3-(p-chlorophenyl)-1-(1H-1,2,4-triazol-1-ylmethyl)propyl bis(p-fluorophenyl)borinate] | 1.9 | 2.3 | 1.3 | 7 (90-95) | 8 (96-99) | 7 (90-95) | 6 (75-89) | 6 (75-89) | 6 (75-89) | 8 (96-99) | 2 (15-29) | 9 (100) | 9 (100) | 9 (100) | 0 (0) |
